Test results published in patent publication US20170266133A1 (priority 2014, published 2017).

Legend:
[1] = system: healthy recreational stimulant users; experiment: single-dose crossover abuse potential study in recreational stimulant users; assay type: in vivo, human
Excerpt: A single-dose, randomized, double-blind, double-dummy, placebo- and active-controlled crossover study with 6 treatment visits per subject was undertaken. […] Subjects participated in a medical screening visit (Visit 1), one 4-day inpatient qualification phase (Visit 2), a treatment phase (Visits 3 to 8) consisting of six 5-day inpatient treatment visits, and a safety follow-up visit (Visit 9). Within 21 days of the screening visit, subjects were enrolled and attended a qualification phase in which they received either 60 mg methylphenidate or matching placebo in a randomized double-blind crossover manner. Dosing times were separated by approximately 24 hours to ensure that subjects could discriminate and show positive effects of the positive control.
Healthy female and male subjects aged 18 to 55 years (inclusive), who were recreational central nervous system (CNS) stimulant users with cocaine experience and who had passed the methylphenidate qualification phase, were randomized into the treatment.
Drug administration occurred on Day 1 of each treatment visit followed by pharmacodynamic (PD), pharmacokinetic (PK), and safety assessments conducted for up to 72 hours post-dose. […] Subjects were randomized to one of 6 treatment sequences according to a 6×6 William square design. The capsules received at each treatment visit (Visits 3 to 8) were identical. Serial pharmacodynamic and pharmacokinetic evaluations were taken at each treatment visit. pharmacokinetic analysis was performed for dasotraline. Safety monitoring included regular assessments of vital signs, clinical laboratory tests, and adverse events (AEs), as well as continuous telemetry monitoring for at least 12 hours post-dose. Treatment visits were separated by a washout interval of at least 21 days (from the day of dosing). Subjects returned for the safety follow-up visit within approximately 14 days following the end of the last treatment visit.

clinical [2] = assay type: in vivo, human
Experimental: Upon oral administration, methylphenidate is rapidly and completely absorbed from the gastrointestinal tract. Peak concentrations occur 1 to 2 hours after dose administration. […] When methylphenidate and cocaine are administered intravenously, their pharmacokinetics are quite similar—the percentage of each drug taken up by the brain and their rates of uptake are parallel, although the clearance from the brain of cocaine is faster than that of methylphenidate. The receptor-binding affinities for cocaine and methylphenidate are similar at the dopamine transporter in the basal ganglia and the striatum. […] Thus it appears that abuse may be related to a rapid surge in dopamine levels in the striatum. […] The consequence of the slow increase in dopamine is the absence of a “high”, and the consequence of the long T1/2 is that, following daily dosing, serum concentration gradually increases to a steady state over the course of about 7 days.

clinical [3] = assay type: in vivo, human; conditions: for steady-state concentration: predicted for longer-term administration from weeks 1-4
Experimental: (§1) The study consisted of 3 periods including Screening, Treatment, and Washout/Follow-up, as described below. Efficacy was evaluated using the ADHD Rating Scale Version IV (ADHD RS-IV) with adult prompts. Effects on cognition were evaluated using the […]. Safety and tolerability were monitored throughout the study by collection of physical examinations, 12-lead electrocardiograms (ECG), vital signs, adverse events (AEs), hematology, blood chemistry, urinalysis, Insomnia Severity Index (ISI), and Columbia-Suicide Severity Rating Scale (C-SSRS).
(§2) Subjects self-administered the study drug at home on Days 1 through 28, at approximately the same time each night. After Day 1 subjects returned to the clinic on Days 8, 15, 22, and 29. Beginning at Day 1 and at every visit during the treatment period, the ADHD RS-IV, Wender-Reimherr Adult Attention Deficit Disorder Scale (WRAADDS), and clinical global impression—severity (CGI-S) were completed. The clinical data repository system was administered at Baseline, and Days 15 and 29.
(§3) At Days 36 and 43, subjects returned to the clinic and the ADHD RS-IV, WRAADDS, and CGI-S were completed. The clinical data repository system was completed on Day 43.
From the measurements of serum concentration at 1, 2, 3, and 4 weeks, one can graph a predicted serum concentration on longer-term administration.

NE transporters (NET) = NE transporters (NET) (Homo sapiens, UniProt P23975); experiment: norepinephrine uptake inhibition; assay type: biochemical
NE transporters (NET), sequence (P23975 whole entry): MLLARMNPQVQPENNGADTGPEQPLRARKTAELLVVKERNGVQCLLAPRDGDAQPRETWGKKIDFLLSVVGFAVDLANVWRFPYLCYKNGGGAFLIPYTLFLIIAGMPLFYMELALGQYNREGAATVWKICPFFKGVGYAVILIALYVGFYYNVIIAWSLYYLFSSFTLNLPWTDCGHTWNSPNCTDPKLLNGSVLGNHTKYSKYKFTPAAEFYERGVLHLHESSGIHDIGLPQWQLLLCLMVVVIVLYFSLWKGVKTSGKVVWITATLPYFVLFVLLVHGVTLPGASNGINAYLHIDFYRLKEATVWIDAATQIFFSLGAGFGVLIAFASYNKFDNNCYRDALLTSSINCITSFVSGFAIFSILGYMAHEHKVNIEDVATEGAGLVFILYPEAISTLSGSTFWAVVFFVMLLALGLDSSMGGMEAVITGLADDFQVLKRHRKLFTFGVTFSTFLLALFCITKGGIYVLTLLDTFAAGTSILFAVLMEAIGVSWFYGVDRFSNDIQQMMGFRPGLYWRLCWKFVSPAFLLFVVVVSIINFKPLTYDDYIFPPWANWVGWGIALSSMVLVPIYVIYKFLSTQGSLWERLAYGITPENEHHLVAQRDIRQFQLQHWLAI
Excerpt: (§4) Dasotraline [(1R,4S)-4-(3,4-Dichlorophenyl)-1,2,3,4-tetrahydronaphthalen-1-amine] is a novel compound with DNRI pharmacology.

DAT sites = biological target: T1, DAT sites (Homo sapiens, UniProt Q01959); experiment: DAT site occupancy versus serum concentration (other studies, not shown); conditions: in vivo
T1 construct: from tissue; host or cells: in vivo occupancy
T1 sequence (Q01959 whole entry): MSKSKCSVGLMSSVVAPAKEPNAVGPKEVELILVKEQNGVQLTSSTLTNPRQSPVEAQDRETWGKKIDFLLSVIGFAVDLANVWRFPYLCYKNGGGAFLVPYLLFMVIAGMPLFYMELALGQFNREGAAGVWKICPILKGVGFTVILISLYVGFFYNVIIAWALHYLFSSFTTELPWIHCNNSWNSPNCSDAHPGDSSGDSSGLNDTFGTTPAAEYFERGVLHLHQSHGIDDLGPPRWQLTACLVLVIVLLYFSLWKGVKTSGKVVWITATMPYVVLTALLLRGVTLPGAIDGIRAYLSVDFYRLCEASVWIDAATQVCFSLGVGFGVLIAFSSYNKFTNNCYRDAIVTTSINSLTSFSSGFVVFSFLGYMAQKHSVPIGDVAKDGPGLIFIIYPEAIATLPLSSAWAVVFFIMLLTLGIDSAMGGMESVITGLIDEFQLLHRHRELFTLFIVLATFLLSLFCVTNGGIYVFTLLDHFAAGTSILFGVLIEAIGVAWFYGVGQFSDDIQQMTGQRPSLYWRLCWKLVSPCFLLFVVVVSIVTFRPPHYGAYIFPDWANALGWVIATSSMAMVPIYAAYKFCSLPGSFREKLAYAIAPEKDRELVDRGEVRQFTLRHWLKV

[4] = system: norepinephrine transporters; experiment: circulating DHPG levels; assay type: in vivo, human; conditions: 8 mg/d
[5] = biological target: human DA transporters (DAT) (Homo sapiens, UniProt Q01959); experiment: dopamine uptake inhibition; assay type: biochemical
human DA transporters (DAT), sequence (Q01959 whole entry): as above
Excerpt: as §4

adults with ADHD [6] = assay type: in vivo, human
Experimental: as §1, §2, §3

adults with ADHD [7] = experiment: Phase 2 study in adults with ADHD, efficacy (ADHD RS-IV, CGI-S, WRAADDS, cognition); assay type: in vivo, human
Experimental: as §1, §2, §3

clinical [8] = conditions: human, in vivo, 8 mg
[9] = cited from earlier work
[10] = 8 mg once daily, all assessment weeks
[11] = methylphenidate 40 mg and 80 mg, single dose

SMILES: N[C@@H]1CC[C@@H](c2ccc(Cl)c(Cl)c2)c2ccccc21 [dasotraline, (1R,4S)-4-(3,4-Dichlorophenyl)-1,2,3,4-tetrahydronaphthalen-1-amine]
- differences from placebo on pharmacodynamic endpoints ([1]; 16 mg single dose): very few statistically significant differences from placebo
- effects on most pharmacodynamic endpoints versus placebo ([1]; dasotraline 8, 16 and 36 mg, single dose): not significantly different from those of placebo
- time to steady state serum concentration (clinical [2]; daily dosing): about 7 days
- Tmax (clinical [2]; human, in vivo, po): 10 to 12 h
- half-life (clinical [2]; human, in vivo, read-out: serum half-life (t1/2)): 47 to 77 h
- steady-state concentration (clinical [3]; dose of 6 mg): about 12 ng/mL
- steady-state concentration (clinical [3]; dose of 8 mg): about 17 ng/mL
- concentration at 4 weeks (clinical [3]; human, in vivo, 8 mg once daily, by week four, read-out: serum concentration plateau): 15 to 20 ng/mL
- serum concentration in the majority of patients (clinical [3]; oral dosage form containing 6-8 mg): 10 to 18 ng/mL
- IC50 (NE transporters (NET)): 4 nM
- serum concentration at 50% DAT site occupancy (DAT sites): 5 to 6 ng/mL
- circulating DHPG levels [4]: decreased circulating DHPG levels
- IC50 [5]: 3 nM
- drug misuse or diversion, Abuse Potential Monitoring Plan (adults with ADHD [6]; 8 mg once daily): No evidence of drug misuse or diversion
- Treatment-emergent adverse events (TEAEs) (adults with ADHD [6]; 8 mg once daily, 4 weeks): higher than the percentage of TEAEs in the placebo group
- anxiety leading to discontinuation (adults with ADHD [6]; 8 mg once daily, 4 weeks): 1.8%
- incidence of adverse events rated as severe (adults with ADHD [6]; 8 mg once daily, 4 weeks): 13.5%
- insomnia leading to discontinuation (adults with ADHD [6]; 8 mg once daily, 4 weeks): 10.8%
- panic attack leading to discontinuation (adults with ADHD [6]; 8 mg once daily, 4 weeks): 2.7%
- Drug Effects Questionnaire mean item scores, distance from the 0-point (adults with ADHD [6]; [10]): ≤ 5 mm
- Drug Effects Questionnaire, drug liking (adults with ADHD [6]; [10]): No evidence of drug liking
- withdrawal upon discontinuation of study drug (adults with ADHD [6]; after 4 weeks of 8 mg once daily): No signs or symptoms of withdrawal
- computerized cognitive assessment battery: attention, working memory, episodic memory (adults with ADHD [7]; 8 mg once daily): no significant main effects
- Wender-Reimherr ADD total score (adults with ADHD [7]; 8 mg once daily vs placebo): did not improve enough to achieve statistical significance
- ADHD RS-IV total score, LS mean change from baseline versus placebo (adults with ADHD [7]; 8 mg once daily, Week 2): trend to separation from placebo
- Wender-Reimherr subscore, attention difficulties component and disorganization component (adults with ADHD [7]; 8 mg once daily, week 4, vs placebo): statistically significant improvement
- Cmax (clinical [8]): ~3 ng/mL
- Tmax (clinical [8]): > 6 h

SMILES: COC(=O)C(c1ccccc1)C1CCCCN1 (stereo not shown) [methylphenidate]
- Drug Similarity Visual Analog Scale [1, 11]: strongly identified as a stimulant
- overall liking [1, 11]: “liked” by subjects overall
- pharmacodynamic endpoints including Drug Liking Visual Analog Scale, versus placebo [1, 11]: significant differences compared to placebo
- secondary stimulant measures [1, 11]: strong stimulant effects
- pharmacokinetic half-life ([9]; in vivo): approximately 2 hours
- time to peak concentrations ([9]; oral administration): 1 to 2 h
